Where a SMILES comes first, the peptide text is derived from it.
What was measured:
NADPH oxidase [1] = target: T1, NADPH oxidase (Homo sapiens, UniProt P14598); assay: Cell-free NADPH oxidase assay (arachidonate-stimulated O2 generation, neutrophil membrane plus cytosol); type: biochemical; details: for Mean inhibition vs. buffer control (n), Cell-free assay: 100 μM synthetic peptide, arachidonate-stimulated O2 production, mean of n experiments in duplicate
T1 construct: Neutrophils were electropermeabilized as described; endogenous in cells; host or cells: electropermeabilized peripheral blood neutrophils (PMN), stimulated with PMA or fMLP
T1 sequence (P14598 1-390): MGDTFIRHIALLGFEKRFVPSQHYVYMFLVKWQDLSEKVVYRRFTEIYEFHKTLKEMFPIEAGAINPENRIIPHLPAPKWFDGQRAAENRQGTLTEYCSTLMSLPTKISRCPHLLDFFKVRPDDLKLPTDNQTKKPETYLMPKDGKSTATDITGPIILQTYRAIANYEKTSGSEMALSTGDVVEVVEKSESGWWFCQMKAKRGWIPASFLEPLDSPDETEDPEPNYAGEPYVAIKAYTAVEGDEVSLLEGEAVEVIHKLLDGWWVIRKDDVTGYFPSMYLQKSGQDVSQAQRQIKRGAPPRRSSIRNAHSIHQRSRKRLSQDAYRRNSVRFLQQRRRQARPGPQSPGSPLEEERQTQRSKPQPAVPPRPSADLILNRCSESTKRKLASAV
Experimental: Neutrophils were isolated from peripheral blood and cytosol and membrane fractions were prepared by differential centrifugation as previously described (Nunoi et al, Science, 242, 1298-1301 (1988)). Typical yields of cytosol and membrane proteins obtained were 2.8±0.1 mg/10^8 cell equivalents and 1.5±0.1 μg/10^6 cell equivalents, respectively (mean±SD, 3 separate preparations). The cell-free assay of O2 generation was modified as follows: wells contained 2.5-5.0×10^5cell equivalents neutrophil membrane, 10^6 cell equivalents neutrophil cytosol in a final volume of 100 μl reaction mixture (150 μM acetylated ferricytochrome c (11), 4 mM MgCl2, 10 μM FAD, 1 mM EGTA, 200 μM NADPH, 40 μM arachidonic acid, 10 μM GTPγ S, ±25 μg/ml superoxide dismutase in 75 mM potassium phosphate, pH 7.0). Because membrane preparations varied in activity, the amount of membrane added per well was adjusted to yield an arachidonate-stimulated O2 production of ≈0.4 nmol/min/well in the absence of synthetic peptide. The maximal linear rate of superoxide dismutase-inhibitable acetylferricytochrome c reduction (ΔO.D. […]) was converted to nmol O2 generated/min using an instrument-corrected extinction coefficient derived empirically as described (Leslie, J. Immunol. Methods, 103, 253-259 (1987)). To measure oxidase inhibition by antibodies directed against the 91 kDa subunit of cytochrome b558 membranes were solubilized in 1% deoxycholate, incubated for 30 min on ice with an equal volume of serum at various dilutions. Diluting these samples 10-fold with H2 O lowered the detergent concentration below the CMC and allowed sedimentation (130,000 g×30 min) of an oxidase-competent membrane fraction. This fraction was resolubilized in deoxycholate, and assayed for arachidonate-stimulatedO2 generation in the presence of cytosol.
In Table 1 above, the cell-free assay of O2 generation contained 2.5-5.0×10^5 cell equivalents of neutrophil (PMN) membrane, 10^6 cell equivalents PMN cytosol in a final volume of 100 μl reaction mixture. Because membrane preparations varied in activity, the amount of membrane added per well was adjusted to yield an arachidonate-stimulated O2 production of ≈0.4 nmol/min/well in the absence of synthetic peptide. Data represent the mean percent inhibition obtained in n experiments (each performed in duplicate) in the presence of 100 μM synthetic peptide compared to a simultaneous buffer control.

[2] = target: T2, 47 kDa cytosolic oxidase factor (Homo sapiens, UniProt P14598); assay: 47 kDa cytosolic protein phosphorylation in the cell-free reaction (immunoprecipitation, SDS-PAGE, autoradiography); type: biochemical; details: densitometry of autoradiograms; 3 independent experiments; read-out: Half-maximal inhibitory concentration, 47 kDa protein phosphorylation
T2 construct: endogenous in cells; host or cells: neutrophil cytosol, with neutrophil membrane, in the cell-free reaction
T2 sequence (P14598 1-390): T1 sequence (P14598 1-390)
Experimental: Components of the cell-free phosphorylation reaction were identical to those for arachidonate-stimulated O2^- generation except for omission of acetylferricytochrome c and inclusion of γ-[^32 P]ATP (0.1 μCi/ml, sp. act. 5000 Ci/mmol). Twenty min after addition of arachidonate, aliquots of the cell-free reaction mixture were mixed with an equal volume of iced "stopping" buffer (150 mM NaCl, 10 mM EDTA, 1% deoxycholate, 1% NP-40, 50 mMNaF, 1 mMNa vanadate, 10 mM Tris, pH 7.4). Proteins bound to rabbit antibodies raised against recombinant 47 kDa protein (Lomax et al, Science, 245, 409-412 (1989)), were precipitated with protein G-sepharose (Harlow et al, Antibodies: A Laboratory Manual (Cold Spring Harbor Laboratory), 465-468 (1988)) and analyzed by SDS-PAGE and autoradiography with intensifying screens.
After stimulation of the neutrophil respiratory burst with phorbol esters the 47 kDa cytosolic oxidase factor is multiply phosphorylated and associates with plasma membrane. […] The immunoprecipitated proteins were analyzed by SDS-PAGE and autoradiography as described above. […] The half-maximal inhibitory concentration of 91 kDa cytochrome b558 carboxyterminal peptide determined by densitometry of autoradiograms was in the range of 25-50 μM in each of 3 independent experiments.

NADPH oxidase [3] = target: T1, NADPH oxidase; assay: Permeabilized cell NADPH oxidase assay (electropermeabilized neutrophils stimulated with PMA or fMLP); type: cell-based; details: for Mean inhibition vs. buffer control (n), Electropermeabilized cell, PMA: PMA 10 ng/ml; for Mean inhibition vs. buffer control (n), Electropermeabilized cell, PMA / Mean inhibition vs. buffer control (n), Electropermeabilized cell, FMLP: preincubation with 800 μM peptide, assay with 200 μM peptide; for Mean inhibition vs. buffer control (n), Electropermeabilized cell, FMLP: fMLP 10 μM
Experimental: Neutrophils were electropermeabilized as described (Grinstein et al, J. Biol. Chem., 263, 1779-1783 (1988)), incubated on ice for 30 min in permeabilization buffer (140 mM KCl, 1 mM MgCl2, 1 mM EGTA, 0.193 mM CaCl2, 1 mM ATP, 2 mM NADPH, 10 μM GTP, 10 mM glucose, 10 mM HEPES-N-methylglucamine, pH 7) supplemented with synthetic peptide (800 μM). The cells were resuspended at 5×10^6 /ml in the same buffer containing 200 μM synthetic peptide, 150 μM acetylferricytochrome c, catalase (2500 U/ml), ±25 μg/ml superoxide dismutase. Wells containing 5×10^5 cells were stimulated with PMA (10 ng/ml) or fMLP (10 μM) and O2^-- production was determined as above.
Electropermeabilized PMN were incubated on ice in permeabilization buffer supplemented with synthetic peptide (800 μM). The cells were resuspended at 5×10^6 /ml in the same buffer containing 200 μM synthetic peptide. Wells containing 5×10^5 cells were stimulated with PMA (10 ng/ml) or fMLP (10 μM) and O2 production was determined as described in "Experimental Procedures". […] Electropermeabilized PMN sham incubated without synthetic peptides and stimulated with […] or fMLP generated 8.4±1.1 nmol O2 /min/10^6 cells and 8.9±1.7 nmol O2 /min/10^6 cells, respectively (mean±SEM, 5 independent experiments).

For `CC[C@H](C)[C@H](NC(=O)[C@H](Cc1ccccc1)NC(=O)[C@H](Cc1c[nH]cn1)NC(=O)[C@@H](NC(=O)CNC(=O)[C@H](CCCNC(=N)N)NC(=O)[C@@H]1CCCN1C(=O)CNC(=O)[C@H](CO)NC(=O)[C@H](CCC(=O)O)NC(=O)[C@H](CO)NC(=O)[C@H](CC(N)=O)NC(=O)[C@H](CO)NC(=O)[C@@H](N)CS)C(C)C)C(=O)N[C@@H](Cc1ccccc1)C(=O)N[C@@H](CC(N)=O)C(=O)N[C@@H](CCCCN)C(=O)N[C@@H](CCC(=O)O)C(=O)N[C@@H](CC(N)=O)C(=O)N[C@@H](Cc1ccccc1)C(=O)O` (H-CSNSESGPRGVHFIFNKENF-OH), the IC50 (NADPH oxidase [1]; peptide and arachidonate added simultaneously, 5 experiments, IC50 by interpolation, read-out: Mean IC50 ±SEM, inhibition of NADPH oxidase activation) was 32 ± 2 µM and the IC50 [2] was 25 to 50 µM.
In the case of `NC(N)=NCCC[C@H](NC(=O)[C@H](Cc1ccccc1)NC(=O)[C@@H]1CCCN1C(=O)[C@H](CO)NC(=O)[C@H](Cc1ccccc1)NC(=O)CNC(=O)[C@@H]1CCCN1C(=O)[C@@H]1CCCN1C(=O)[C@@H](N)CCCN=C(N)N)C(=O)O` [Bradykinin] (H-RPPGFSPFR-OH), the “Mean inhibition vs. buffer control (n), Cell-free assay” value (NADPH oxidase [1]) is reported as -8%, the “Mean inhibition vs. buffer control (n), Electropermeabilized cell, PMA” value (“Mean inhibition vs. buffer control (n) … PMA” below) (NADPH oxidase [3]) is reported as -8% and the “Mean inhibition vs. buffer control (n), Electropermeabilized cell, FMLP” value (“Mean inhibition vs. buffer control (n) … FMLP” below) (NADPH oxidase [3]) is reported as -6%.
In the case of `CC(C)[C@H](NC(=O)[C@H](C)NC(=O)[C@H](Cc1c[nH]c2ccccc12)NC(=O)[C@H](CC(N)=O)NC(=O)CN)C(=O)N[C@@H](CC(N)=O)C(=O)N[C@@H](CCC(=O)O)C(=O)NCC(=O)N[C@@H](CS)C(=O)O` [GNWAVNEGC] (H-GNWAVNEGC-OH), the “Mean inhibition vs. buffer control (n), Cell-free assay” value (NADPH oxidase [1]) is reported as -17%.
In the case of `CC(C)C[C@H](NC(=O)[C@@H](N)Cc1c[nH]cn1)C(=O)N[C@@H](Cc1ccccc1)C(=O)N[C@@H](CC(N)=O)C(=O)N[C@H](C(=O)N[C@@H](CCC(=O)O)C(=O)N[C@@H](Cc1c[nH]c2ccccc12)C(=O)N[C@@H](CS)C(=O)O)C(C)C` [HLFNVEWC] (H-HLFNVEWC-OH), the “Mean inhibition vs. buffer control (n), Cell-free assay” value (NADPH oxidase [1]) is reported as -17%, the “Mean inhibition vs. buffer control (n) … PMA” value (NADPH oxidase [3]) is reported as -6% and the “Mean inhibition vs. buffer control (n) … FMLP” value (NADPH oxidase [3]) is reported as 6%.
With `CC[C@H](C)[C@H](NC(=O)[C@H](Cc1ccccc1)NC(=O)[C@H](Cc1c[nH]cn1)NC(=O)[C@@H](NC(=O)CNC(=O)[C@@H](N)CCCNC(=N)N)C(C)C)C(=O)N[C@@H](Cc1ccccc1)C(=O)O` [RGVHFIF, Arg--Gly--Val--His--Phe--Ile--Phe] (H-RGVHFIF-OH) the “Mean inhibition vs. buffer control (n), Cell-free assay” value (NADPH oxidase [1]) was 97%, the “Mean inhibition vs. buffer control (n) … PMA” value (NADPH oxidase [3]) was 72% and the “Mean inhibition vs. buffer control (n) … FMLP” value (NADPH oxidase [3]) was 73%.
With `CC[C@H](C)[C@H](NC(=O)[C@@H](NC(=O)[C@H](C)NC(=O)[C@H](CCC(N)=O)NC(=O)[C@H](Cc1ccccc1)NC(=O)CNC(=O)[C@H](C)NC(=O)[C@H](Cc1c[nH]cn1)NC(=O)[C@H](C)NC(=O)[C@H](CCCNC(=N)N)NC(=O)[C@H](CCCCN)NC(=O)[C@@H](N)CCCNC(=N)N)[C@@H](C)O)C(=O)O` [RKRAHAGFQATI] (H-RKRAHAGFQATI-OH) the “Mean inhibition vs. buffer control (n), Cell-free assay” value (NADPH oxidase [1]) was -5%, the “Mean inhibition vs. buffer control (n) … PMA” value (NADPH oxidase [3]) was -11% and the “Mean inhibition vs. buffer control (n) … FMLP” value (NADPH oxidase [3]) was -28%.
For `CC[C@H](C)[C@H](NC(=O)[C@H](Cc1ccccc1)NC(=O)[C@H](Cc1c[nH]cn1)NC(=O)[C@@H](NC(=O)CNC(=O)[C@H](CCCNC(=N)N)NC(=O)[C@@H]1CCCN1C(=O)CNC(=O)[C@H](CO)NC(=O)[C@H](CCC(=O)O)NC(=O)[C@H](CO)NC(=O)[C@H](CC(N)=O)NC(=O)[C@@H](N)CO)C(C)C)C(=O)N[C@@H](Cc1ccccc1)C(=O)N[C@@H](CC(N)=O)C(=O)N[C@@H](CCCCN)C(=O)N[C@@H](CCC(=O)O)C(=O)N[C@@H](CC(N)=O)C(=O)N[C@@H](Cc1ccccc1)C(=O)O` [SNSESGPRGVHFIFNKENF] (H-SNSESGPRGVHFIFNKENF-OH), the “Mean inhibition vs. buffer control (n), Cell-free assay” value (NADPH oxidase [1]) was 96%.
In the case of `NC(=O)C[C@H](NC(=O)[C@@H](N)CO)C(=O)N[C@@H](CO)C(=O)N[C@@H](CCC(=O)O)C(=O)N[C@@H](CO)C(=O)NCC(=O)N1CCC[C@H]1C(=O)O` [SNSESGP] (H-SNSESGP-OH), the “Mean inhibition vs. buffer control (n), Cell-free assay” value (NADPH oxidase [1]) is reported as -8%, the “Mean inhibition vs. buffer control (n) … PMA” value (NADPH oxidase [3]) is reported as -1% and the “Mean inhibition vs. buffer control (n) … FMLP” value (NADPH oxidase [3]) is reported as 2%.
`CSCC[C@H](NC(=O)[C@H](CO)NC(=O)[C@H](Cc1ccccc1)NC(=O)[C@@H](N)C(C)C)C(=O)N[C@@H](Cc1ccccc1)C(=O)N[C@@H](CCC(N)=O)C(=O)NCC(=O)N[C@@H](CCC(=O)O)C(=O)N[C@@H](CCC(=O)O)C(=O)N[C@@H](CO)C(=O)O` [VFSMFQGEES] (H-VFSMFQGEES-OH) was tested, and the “Mean inhibition vs. buffer control (n), Cell-free assay” value (NADPH oxidase [1]) was 10%, the “Mean inhibition vs. buffer control (n) … PMA” value (NADPH oxidase [3]) was 3% and the “Mean inhibition vs. buffer control (n) … FMLP” value (NADPH oxidase [3]) was -5%.
With “RGVHFIFNKENF [Residues 559-570 of the 91 kDa subunit of cytochrome b558]” the “Mean inhibition vs. buffer control (n), Cell-free assay” value (NADPH oxidase [1]) was 93%, the “Mean inhibition vs. buffer control (n) … PMA” value (NADPH oxidase [3]) was 61% and the “Mean inhibition vs. buffer control (n) … FMLP” value (NADPH oxidase [3]) was 67%. The “Inhibition of O2 production by electropermeabilized neutrophils (in words)” value (NADPH oxidase [3]; stimulated with fMLP or PMA) was “inhibited”.

Reference: patent US5593966A, “Peptide derivatives of cytochrome b558 and their use as medicaments” (The United States of America as represented by the …, priority 1990, dated 1997)
